Several values for one entry are separate records, joined by “and”; a condition that tells them apart may be missing. Equal entries are not always repeated. Toxic doses and inconclusive results are not listed.
Tested on: L1210 leukemia ip in BDF1 mice, survival T/C
Assay: NCI In Vivo Anticancer Drug Screen. Data for tumor model L1210 Leukemia (intraperitoneal) in B6D2F1 (BDF1) mice
Conditions: endpoint: mean survival time, higher = longer survival
Summary of the method: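 Survival endpoint. Drug-treated group vs vehicle group, expressed as T divided by C. Tumor passaged by transplantation.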

[1] = dose: 100.0 mg/kg/injection, schedule: Q01DX001 (ip), vehicle: saline
[2] = dose: 200.0 mg/kg/injection, schedule: Q01DX001 (ip), vehicle: saline
[3] = dose: 400.0 mg/kg/injection, schedule: Q01DX001 (ip), vehicle: saline
[4] = dose: 50.0 mg/kg/injection, schedule: Q01DX001 (ip), vehicle: carboxymethylcellulose (CMC)
[5] = dose: 100.0 mg/kg/injection, schedule: Q01DX001 (ip), vehicle: carboxymethylcellulose (CMC)
[6] = dose: 200.0 mg/kg/injection, schedule: Q01DX001 (ip), vehicle: carboxymethylcellulose (CMC)
[7] = dose: 400.0 mg/kg/injection, schedule: Q01DX001 (ip), vehicle: carboxymethylcellulose (CMC)
[8] = dose: 100.0 mg/kg/injection, schedule: Q04DX002 (ip), vehicle: saline with Tween-80
[9] = dose: 200.0 mg/kg/injection, schedule: Q04DX002 (ip), vehicle: saline with Tween-80
[10] = dose: 400.0 mg/kg/injection, schedule: Q04DX002 (ip), vehicle: saline with Tween-80
[11] = dose: 100.0 mg/kg/injection, schedule: Q04DX003 (ip), vehicle: Klucel (hydroxypropylcellulose) (HPC)
[12] = dose: 200.0 mg/kg/injection, schedule: Q04DX003 (ip), vehicle: Klucel (hydroxypropylcellulose) (HPC)
[13] = dose: 100.0 mg/kg/injection, schedule: Q04DX003 (ip), vehicle: saline with Tween-80
[14] = dose: 200.0 mg/kg/injection, schedule: Q04DX003 (ip), vehicle: saline with Tween-80
[15] = dose: 400.0 mg/kg/injection, schedule: Q04DX003 (ip), vehicle: saline with Tween-80
[16] = dose: 50.0 mg/kg/injection, schedule: Q01DX009 (ip), vehicle: saline with Tween-80
[17] = dose: 100.0 mg/kg/injection, schedule: Q01DX009 (ip), vehicle: saline with Tween-80
[18] = dose: 200.0 mg/kg/injection, schedule: Q01DX009 (ip), vehicle: saline with Tween-80
[19] = dose: 400.0 mg/kg/injection, schedule: Q01DX009 (ip), vehicle: saline with Tween-80

In the case of `CC(=O)OCC1C(OC(C)=O)C(OC(C)=O)C(OC(C)=O)N1C(C)=O` (stereo not given), the T/C (dose: 50.0 mg/kg/injection, schedule: Q01DX001 (ip), vehicle: saline) is reported as 98 % of control, the T/C [1] is reported as 95 % of control and the T/C [2] is reported as 98 % of control. The T/C [3] was 98 % of control.
`CC1(C)C(OS(C)(=O)=O)C(C)(C)C1OS(C)(=O)=O` (stereo not given) was tested, and the T/C [4] was 111 % of control, the T/C [5] was 121 % of control and the T/C (dose: 100.0 mg/kg/injection, schedule: Q01DX001 (sc), vehicle: carboxymethylcellulose (CMC)) was 108 % of control. For the same compound, the T/C [6] was 100 % of control, the T/C (dose: 200.0 mg/kg/injection, schedule: Q01DX001 (sc), vehicle: carboxymethylcellulose (CMC)) was 108 % of control and the T/C [7] was 100 % of control. For the same compound, the T/C (dose: 400.0 mg/kg/injection, schedule: Q01DX001 (sc), vehicle: carboxymethylcellulose (CMC)) was 100 % of control.
In the case of `CN1C(=O)N(C)P1(Cl)(Cl)Cl`, the T/C [8] is reported as 103 % of control, the T/C [9] is reported as 95 % of control and the T/C [10] is reported as 92 % of control.
In the case of `CN(Cc1cnc2nc(N)cc(N)c2n1)c1ccc(C(=O)NC(CCC(=O)O)C(=O)O)cc1` (stereo not given), the T/C (dose: 0.5 mg/kg/injection, schedule: Q01DX009 (ip), vehicle: other) is reported as 102 % of control, the T/C (dose: 1.0 mg/kg/injection, schedule: Q01DX009 (ip), vehicle: other) is reported as 100 % of control and the T/C (dose: 2.0 mg/kg/injection, schedule: Q01DX009 (ip), vehicle: other) is reported as 112 % of control. The T/C (dose: 4.0 mg/kg/injection, schedule: Q01DX009 (ip), vehicle: other) was 105 % of control, the T/C (dose: 8.0 mg/kg/injection, schedule: Q01DX009 (ip), vehicle: other) was 117 % of control and the T/C (dose: 50.0 mg/kg/injection, schedule: Q01DX009 (ip), vehicle: other) was 154 % of control. The T/C (dose: 100.0 mg/kg/injection, schedule: Q01DX009 (ip), vehicle: other) was 164 % of control.
`O=Cc1ccc(Oc2ccc([N+](=O)[O-])cc2[N+](=O)[O-])cc1` was tested, and the T/C (dose: 25.0 mg/kg/injection, schedule: Q01DX009 (ip), vehicle: water) was 96 % of control, the T/C (dose: 50.0 mg/kg/injection, schedule: Q01DX009 (ip), vehicle: water) was 102 % of control and the T/C (dose: 100.0 mg/kg/injection, schedule: Q01DX009 (ip), vehicle: water) was 104 % of control. For the same compound, the T/C (dose: 200.0 mg/kg/injection, schedule: Q01DX009 (ip), vehicle: water) was 95 % of control and the T/C (dose: 400.0 mg/kg/injection, schedule: Q01DX009 (ip), vehicle: water) was 98 % of control.
With `CC(C)(C)O[Si](OCC(F)(F)C(F)(F)C(F)(F)C(F)(F)C(F)(F)C(F)F)(OCC(F)(F)C(F)(F)C(F)(F)C(F)(F)C(F)(F)C(F)F)OC(C)(C)C` the T/C [4] was 100 % of control, the T/C [5] was 94 % of control and the T/C [6] was 94 % of control. The T/C [7] was 94 % of control.
`COc1ccc(C=Nc2ccc([N+](=O)[O-])cc2O)cc1` was tested, and the T/C [5] was 96 % of control, the T/C [6] was 94 % of control and the T/C [7] was 90 % of control.
With `Cc1nc(N)[nH]c(=O)c1CCCN=Cc1ccccc1` the T/C (dose: 100.0 mg/kg/injection, schedule: Q01DX009 (ip), vehicle: Klucel (hydroxypropylcellulose) (HPC)) was 101 % of control, the T/C (dose: 200.0 mg/kg/injection, schedule: Q01DX009 (ip), vehicle: Klucel (hydroxypropylcellulose) (HPC)) was 92 % of control and the T/C (dose: 400.0 mg/kg/injection, schedule: Q01DX009 (ip), vehicle: Klucel (hydroxypropylcellulose) (HPC)) was 95 % of control.
For `C1CCC2[N-]CC3CCCCC3[N-]CC3CCCCC3[N-]CC3CCCCC3[N-]CC2C1.[Ni+2].[O-][Cl+3]([O-])([O-])O` (stereo not given), the T/C (dose: 12.5 mg/kg/injection, schedule: Q04DX002 (ip), vehicle: saline with Tween-80) was 101 % of control, the T/C (dose: 25.0 mg/kg/injection, schedule: Q04DX002 (ip), vehicle: saline with Tween-80) was 108 % of control and the T/C (dose: 50.0 mg/kg/injection, schedule: Q04DX002 (ip), vehicle: saline with Tween-80) was 111 % of control.
With `CC(=O)Nc1c([N+](=O)[O-])ccc(Cl)c1Cl` the T/C [11] was 98 % of control and the T/C [12] was 97 % of control.
`NC(=S)N/N=C\c1nccc2c(C(=O)O)cccc12` was tested, and the T/C (dose: 100.0 mg/kg/injection, schedule: Q04DX002 (ip), vehicle: saline) was 106 % of control and the T/C (dose: 200.0 mg/kg/injection, schedule: Q04DX002 (ip), vehicle: saline) was 106 % of control.
For `Cc1ccc2oc(=O)cc(C)c2c1`, the T/C [5] was 91 % of control, the T/C [6] was 96 % of control and the T/C [7] was 93 % of control.
In the case of `COc1ccc(OC)c2c(=O)cc(C)[nH]c12`, the T/C [1] is reported as 100 % of control, the T/C [2] is reported as 92 % of control and the T/C [3] is reported as 102 % of control.
For `COC(=O)C1=C(N)CCc2ccccc21`, the T/C [13] was 97 % of control, the T/C [14] was 103 % of control and the T/C [15] was 101 % of control.
In the case of `O=C(O)CCCC1CC(=O)c2c(c(O)c3ccccc3c2O)C1=O` (stereo not given), the T/C [16] is reported as 101 % of control, the T/C [17] is reported as 103 % of control and the T/C [13] is reported as 101 % of control. For the same compound, the T/C [18] was 101 % of control, the T/C [14] was 95 % of control and the T/C [15] was 95 % of control.
With `Cc1ccc(C(O)(c2ccccc2)C2C(c3ccccc3)N2C2CCCCC2)cc1` (stereo not given) the T/C (dose: 100.0 mg/kg/injection, schedule: Q04DX003 (ip), vehicle: saline sonified) was 92 % of control, the T/C (dose: 200.0 mg/kg/injection, schedule: Q04DX003 (ip), vehicle: saline sonified) was 87 % of control and the T/C (dose: 400.0 mg/kg/injection, schedule: Q04DX003 (ip), vehicle: saline sonified) was 89 % of control.
`Cc1ccc(N(Cc2ccccc2)Cc2ccccc2)cc1` was tested, and the T/C (dose: 75.0 mg/kg/injection, schedule: Q01DX009 (ip), vehicle: other) was 103 % of control, the T/C (dose: 100.0 mg/kg/injection, schedule: Q04DX002 (ip), vehicle: other) was 105 % of control and the T/C (dose: 150.0 mg/kg/injection, schedule: Q01DX009 (ip), vehicle: other) was 106 % of control. For the same compound, the T/C (dose: 200.0 mg/kg/injection, schedule: Q04DX002 (ip), vehicle: other) was 97 % of control, the T/C (dose: 300.0 mg/kg/injection, schedule: Q01DX009 (ip), vehicle: other) was 98 % of control and the T/C (dose: 400.0 mg/kg/injection, schedule: Q04DX002 (ip), vehicle: other) was 97 % of control.
With `CC(C)(C)NC(=O)Nc1ccc(O)cc1` the T/C [17] was 112 % of control and 91 % of control, the T/C [8] was 94 % of control and 100 % of control and the T/C [13] was 95 % of control. For the same compound, the T/C [18] was 100 % of control and 102 % of control, the T/C [9] was 94 % of control and 100 % of control and the T/C [14] was 113 % of control. For the same compound, the T/C [19] was 120 % of control, the T/C [10] was 100 % of control and 101 % of control and the T/C [15] was 105 % of control.
With `CN(C)NP(=O)(Nc1ccccc1)Nc1ccccc1` the T/C (dose: 100.0 mg/kg/injection, schedule: Q01DX009 (ip), vehicle: carboxymethylcellulose (CMC)) was 103 % of control, the T/C (dose: 200.0 mg/kg/injection, schedule: Q01DX009 (ip), vehicle: carboxymethylcellulose (CMC)) was 93 % of control and the T/C (dose: 400.0 mg/kg/injection, schedule: Q01DX009 (ip), vehicle: carboxymethylcellulose (CMC)) was 98 % of control.
In the case of `O=C(Nc1ccc(Cl)cc1[N+](=O)[O-])Oc1ccc(-c2ccccc2)cc1`, the T/C (dose: 100.0 mg/kg/injection, schedule: Q01DX001 (ip), vehicle: saline with Tween-80) is reported as 97 % of control, the T/C [17] is reported as 94 % of control and 103 % of control and the T/C [8] is reported as 97 % of control and 91 % of control. The T/C [13] was 108 % of control, the T/C (dose: 200.0 mg/kg/injection, schedule: Q01DX001 (ip), vehicle: saline with Tween-80) was 100 % of control and the T/C [18] was 92 % of control. For the same compound, the T/C [9] was 102 % of control and 90 % of control, the T/C [14] was 107 % of control and the T/C (dose: 400.0 mg/kg/injection, schedule: Q01DX001 (ip), vehicle: saline with Tween-80) was 89 % of control. For the same compound, the T/C [19] was 106 % of control and 92 % of control, the T/C [10] was 103 % of control and 91 % of control and the T/C [15] was 95 % of control.
With `COC(=O)C(=C(c1ccccc1)c1ccccc1)c1ccccc1C(=O)O` the T/C [17] was 90 % of control, the T/C [13] was 101 % of control and the T/C [18] was 88 % of control. The T/C [14] was 93 % of control, the T/C [19] was 96 % of control and the T/C [15] was 92 % of control.
`CC1=C2C(=O)c3ccccc3C2=C(C)S(=O)(=O)O1` was tested, and the T/C [17] was 101 % of control, the T/C [13] was 98 % of control and the T/C [18] was 88 % of control. For the same compound, the T/C [14] was 106 % of control, the T/C [19] was 94 % of control and the T/C [15] was 98 % of control.
`O=C(Nc1ccccc1C(F)(F)F)OCCOc1ccc([N+](=O)[O-])cc1` was tested, and the T/C [11] was 89 % of control, the T/C [12] was 87 % of control and the T/C (dose: 400.0 mg/kg/injection, schedule: Q04DX003 (ip), vehicle: Klucel (hydroxypropylcellulose) (HPC)) was 92 % of control.
With `CC(CCC(=O)O)C1CCC2C3CCC4CC(OC=O)CCC4(C)C3CC(OC=O)C12C` (stereo not given) the T/C [16] was 101 % of control, the T/C [17] was 92 % of control and the T/C [13] was 96 % of control. The T/C [18] was 105 % of control.
